Test results from ChEMBL document CHEMBL1144685, “Naphthamides as novel and potent vascular endothelial growth factor receptor tyrosine kinase inhibitors: design, synthesis, and evaluation” (J Med Chem, 2008).
Active and inactive are the calls of the source. The rule behind the calls is not given here.

Tests used:
[1] = molecular target: Vascular endothelial growth factor receptor 2 (Homo sapiens, UniProt P35968)
Description: Inhibition of KDR by HTRF assay

HUVEC [2] = assay: cells; conditions: Homo sapiens
Description: Inhibition of VEGF-induced proliferation of HUVEC cells

HUVEC [3] = assay: cells; conditions: Homo sapiens; remark: listed apart in the source
Description: Inhibition of bFGF-induced proliferation of HUVEC cells

Cytochrome P450 3A4 = Cytochrome P450 3A4 (Homo sapiens, UniProt P08684)
[4] = Clearance in Sprague-Dawley rat at 0.5 mg/kg, iv; format: ADME, organism-based; design: dose 0.5 mg/kg, route intravenous; conditions: in vivo
Cytochrome P450 2D6 = Cytochrome P450 2D6 (Homo sapiens, UniProt P10635)
[5] = Mean retention time in Sprague-Dawley rat at 0.5 mg/kg, iv; format: ADME, organism-based; design: dose 0.5 mg/kg, route intravenous; conditions: in vivo
[6] = Volume of distribution at steady state in Sprague-Dawley rat at 0.5 mg/kg, iv; format: ADME, organism-based; design: dose 0.5 mg/kg, route intravenous; conditions: in vivo, read-out: Vdss
[7] = Intrinsic clearance in rat liver microsomes; format: ADME, Microsome
[8] = Intrinsic clearance in human liver microsomes; format: ADME, Microsome
[9] = Half life in Sprague-Dawley rat at 0.5 mg/kg, iv; format: ADME, organism-based; design: dose 0.5 mg/kg, route intravenous; conditions: in vivo
[10] = Cmax in Sprague-Dawley rat at 10 mg/kg, po; format: ADME, organism-based; design: dose 10 mg/kg, route oral; conditions: in vivo
[11] = Mean retention time in Sprague-Dawley rat at 1 mg/kg, iv; format: ADME, organism-based; design: dose 1 mg/kg, route intravenous; conditions: in vivo
[12] = Half life in Sprague-Dawley rat at 1 mg/kg, iv; format: ADME, organism-based; design: dose 1 mg/kg, route intravenous; conditions: in vivo
[13] = Volume of distribution at steady state in Sprague-Dawley rat at 1 mg/kg, iv; format: ADME, organism-based; design: dose 1 mg/kg, route intravenous; conditions: in vivo, read-out: Vdss
[14] = AUC (0 to 24 hrs) in Sprague-Dawley rat at 10 mg/kg, po; format: ADME, organism-based; design: time < 24 hr, dose 10 mg/kg, route oral; conditions: plasma
[15] = Oral bioavailability in Sprague-Dawley rat at 10 mg/kg; format: ADME, organism-based; conditions: in vivo
[16] = Clearance in Sprague-Dawley rat at 1 mg/kg, iv; format: ADME, organism-based; design: dose 1 mg/kg, route intravenous; conditions: in vivo
Mus musculus [17] = assay: Inhibition of vascular permeability in HEK293 cells over expressing recombinant mouse VEGF implanted CD1 nu/nu mouse at 30 mg/kg, po by Matrigel plug assay; format: functional, organism-based; design: dose 30 mg/kg
HT-29 [18] = assay: Antitumor activity against human HT29 cell xenografted CD1 nu/nu mouse assessed as inhibition of tumor growth at 10 mg/kg, po after 7 days; format: functional, organism-based; design: dose 10 mg/kg
HT-29 [19] = assay: Antitumor activity against human HT29 cell xenografted CD1 nu/nu mouse assessed as inhibition of tumor growth at 30 mg/kg, po after 10 days; format: functional, organism-based; design: dose 30 mg/kg
Mus musculus [20] = assay: Inhibition of vascular permeability in HEK293 cells over expressing recombinant mouse VEGF implanted CD1 nu/nu mouse at 100 mg/kg, po by Matrigel plug assay; format: functional, organism-based; design: dose 100 mg/kg
Mus musculus [21] = species: Mus musculus; assay: Inhibition of mouse KDR phosphorylation in BALB/c mouse lung assessed as phosphorylated Flk1 level by Delphia assay; format: functional, organism-based

Cytochrome P450 3A4, sequence (P08684 whole entry): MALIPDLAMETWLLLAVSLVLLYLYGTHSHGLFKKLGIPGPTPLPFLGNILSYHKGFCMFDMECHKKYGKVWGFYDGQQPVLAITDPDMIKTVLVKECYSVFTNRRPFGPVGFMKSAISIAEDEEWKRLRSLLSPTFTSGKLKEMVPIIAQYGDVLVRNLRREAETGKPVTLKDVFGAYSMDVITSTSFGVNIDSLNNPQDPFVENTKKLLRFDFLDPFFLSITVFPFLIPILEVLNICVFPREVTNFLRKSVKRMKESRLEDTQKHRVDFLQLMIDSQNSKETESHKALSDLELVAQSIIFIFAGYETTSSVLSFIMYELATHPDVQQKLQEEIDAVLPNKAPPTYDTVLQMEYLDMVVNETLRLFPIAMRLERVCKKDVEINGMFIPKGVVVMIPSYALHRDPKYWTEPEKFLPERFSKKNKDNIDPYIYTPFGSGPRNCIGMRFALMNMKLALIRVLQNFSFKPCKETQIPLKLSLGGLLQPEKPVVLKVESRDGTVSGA
Vascular endothelial growth factor receptor 2, sequence (P35968 whole entry): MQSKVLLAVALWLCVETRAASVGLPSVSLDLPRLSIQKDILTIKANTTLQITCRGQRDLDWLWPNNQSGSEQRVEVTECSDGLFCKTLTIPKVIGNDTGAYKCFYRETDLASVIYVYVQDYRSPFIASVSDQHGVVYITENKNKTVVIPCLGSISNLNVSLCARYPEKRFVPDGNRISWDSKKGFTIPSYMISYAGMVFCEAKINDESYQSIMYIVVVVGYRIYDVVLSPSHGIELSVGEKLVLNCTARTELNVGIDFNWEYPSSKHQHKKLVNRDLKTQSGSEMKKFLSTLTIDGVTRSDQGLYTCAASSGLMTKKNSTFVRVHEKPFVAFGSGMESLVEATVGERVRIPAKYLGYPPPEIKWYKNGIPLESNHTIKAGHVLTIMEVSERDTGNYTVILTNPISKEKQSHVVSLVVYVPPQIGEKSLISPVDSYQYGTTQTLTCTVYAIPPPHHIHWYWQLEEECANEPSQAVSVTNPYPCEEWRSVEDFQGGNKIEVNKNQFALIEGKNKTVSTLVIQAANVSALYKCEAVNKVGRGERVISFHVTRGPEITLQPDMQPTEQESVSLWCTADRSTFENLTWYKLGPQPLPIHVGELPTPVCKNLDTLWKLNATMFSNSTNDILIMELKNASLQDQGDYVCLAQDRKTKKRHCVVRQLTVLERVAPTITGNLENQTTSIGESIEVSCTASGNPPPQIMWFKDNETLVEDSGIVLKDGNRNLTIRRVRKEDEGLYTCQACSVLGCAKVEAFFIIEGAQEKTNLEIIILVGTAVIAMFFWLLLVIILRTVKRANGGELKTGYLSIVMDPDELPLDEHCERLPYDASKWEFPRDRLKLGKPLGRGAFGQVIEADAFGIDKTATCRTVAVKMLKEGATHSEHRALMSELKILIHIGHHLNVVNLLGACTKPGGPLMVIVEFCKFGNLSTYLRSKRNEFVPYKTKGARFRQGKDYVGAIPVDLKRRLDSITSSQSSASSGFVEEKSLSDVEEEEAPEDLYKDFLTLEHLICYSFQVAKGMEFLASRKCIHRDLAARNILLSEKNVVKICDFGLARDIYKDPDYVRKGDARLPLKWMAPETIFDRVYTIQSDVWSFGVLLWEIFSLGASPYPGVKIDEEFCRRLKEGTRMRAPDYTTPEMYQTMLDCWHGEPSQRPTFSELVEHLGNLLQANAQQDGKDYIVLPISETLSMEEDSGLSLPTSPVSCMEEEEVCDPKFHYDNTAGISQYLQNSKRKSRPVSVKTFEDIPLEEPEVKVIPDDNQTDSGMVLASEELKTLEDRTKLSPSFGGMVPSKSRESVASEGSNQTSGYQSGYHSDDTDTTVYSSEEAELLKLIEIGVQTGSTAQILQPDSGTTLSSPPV
Cytochrome P450 2D6, sequence (P10635 whole entry): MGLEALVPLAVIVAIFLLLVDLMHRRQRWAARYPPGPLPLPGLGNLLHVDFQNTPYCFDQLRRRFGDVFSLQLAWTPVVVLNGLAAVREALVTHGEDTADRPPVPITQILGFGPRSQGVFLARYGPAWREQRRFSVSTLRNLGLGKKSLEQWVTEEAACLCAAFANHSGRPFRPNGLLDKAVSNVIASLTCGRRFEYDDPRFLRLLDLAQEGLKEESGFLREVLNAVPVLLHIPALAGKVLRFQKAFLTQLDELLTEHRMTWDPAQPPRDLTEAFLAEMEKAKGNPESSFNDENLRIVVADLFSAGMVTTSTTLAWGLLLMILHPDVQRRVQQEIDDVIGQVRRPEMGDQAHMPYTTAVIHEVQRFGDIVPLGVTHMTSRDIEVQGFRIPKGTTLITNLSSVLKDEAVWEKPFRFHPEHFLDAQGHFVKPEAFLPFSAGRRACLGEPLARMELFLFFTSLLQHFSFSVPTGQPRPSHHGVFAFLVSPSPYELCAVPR

Structure (SMILES)	IC50 [1]	IC50 (HUVEC [2])	IC50 (HUVEC [3])	also measured
COc1cc2nccc(Oc3ccc4c(C(=O)NC5(C)CC5)cccc4c3)c2cc1OC	0.015 µM	–	–	–
COc1cc2nccc(Oc3ccc4c(C(=O)Nc5ccc(Cl)cc5Cl)cccc4c3)c2cc1OC	0.002 µM	0.014 µM	> 1.14 µM	–
COc1cc2nccc(Oc3ccc4c(C(=O)NC5CCCC5)cccc4c3)c2cc1OC	0.009 µM	0.007 µM	> 1.14 µM	–
COc1cc2ncc(F)c(Oc3ccc4c(C(=O)Nc5ccc(Cl)cc5)cccc4c3)c2cc1OC	0.02 µM	0.069 µM	> 1.1 µM	–
COc1cc2nccc(Oc3ccc4c(C(=O)Nc5nccs5)cccc4c3)c2cc1OC	–	0.002 µM	0.605 µM	–
COc1cc2nccc(N(C)c3ccc4c(C(=O)Nc5ccc(Cl)cc5)cccc4c3)c2cc1OC	> 1.4 µM	–	–	–
COc1cc2nccc(Oc3ccc4c(C(=O)Nc5ccncc5)cccc4c3)c2cc1OC	0.002 µM	0.002 µM	> 1.14 µM	IC50 (Cytochrome P450 3A4): 0.1 µM; Cmax [10]: 1690 ng/mL; MRT [11]: 2.5 h; IC50 (Cytochrome P450 2D6): 0.7 µM; half-life [12]: 1.8 h; Vd [13]: 1.4 L/kg; AUC(0-t) at 24 h [14]: 11000 ng·h/mL; microsomal CLint [7]: 80 µL/min/mg; bioavailability [15]: 62%; microsomal CLint [8]: 30 µL/min/mg; clearance [16]: 10 mL/min/kg
O=C(Nc1ccc(Cl)cc1)c1cccc2cc(Oc3ccnc4ccccc34)ccc12	0.004 µM	0.034 µM	> 1.1 µM	–
COc1cc2nccc(Nc3ccc4c(C(=O)Nc5ccc(Cl)cc5)cccc4c3)c2cc1OC	0.008 µM	0.014 µM	0.115 µM	–
COc1cc2nccc(Oc3ccc4c(C(=O)Nc5ccc(Cl)cc5)ccnc4c3)c2cc1OC	0.022 µM	0.01 µM	0.088 µM	–
CNc1cc(Oc2ccc3c(C(=O)Nc4ccc(Cl)cc4)cccc3c2)ncn1	0.02 µM	0.106 µM	> 1.1 µM	–
CNC(=O)c1cc(Oc2ccc3c(C(=O)Nc4ccc(Cl)cc4)cccc3c2)ccn1	0.003 µM	0.21 µM	> 1.1 µM	–
COc1cc2nccc(Oc3ccc4c(C(=O)NC5CCC5)cccc4c3)c2cc1OC	0.003 µM	0.007 µM	> 1.14 µM	–
CCCNC(=O)c1cccc2cc(Oc3ccnc4cc(OC)c(OC)cc34)ccc12	0.0013 µM	0.007 µM	> 1.14 µM	–
COc1ccc2c(Oc3ccc4c(C(=O)Nc5ccc(Cl)cc5)cccc4c3)ccnc2c1	0.001 µM	0.008 µM	> 1.1 µM	–
COc1cc2nccc(Oc3ccc4c(C(=O)NC5CC5)cccc4c3)c2cc1OC	–	0.001 µM	–	–
COc1cc2nccc(Oc3ccc4c(C(=O)NC(C)C)cccc4c3)c2cc1OC	0.005 µM	0.004 µM	> 1.14 µM	–
CNc1cc(Oc2ccc3c(C(=O)Nc4ccc(Cl)cc4)cccc3c2)ccn1	0.007 µM	0.14 µM	> 1.1 µM	–
O=C(Nc1ccc(Cl)cc1)c1cccc2cc(Oc3ccncc3)ccc12	0.018 µM	0.22 µM	> 1.1 µM	–
O=C(Nc1ccc(Cl)cc1)c1cccc2cc(Oc3ccncn3)ccc12	0.31 µM	–	–	–
COc1cc2nccc(Oc3ccc4c(C(=O)Nc5ccc(Cl)cc5)cccc4c3)c2cc1OC	–	–	–	Activity (Mus musculus [17]): Dose-dependent effect; Activity (HT-29 [18]): Active; Activity (HT-29 [19]): Active; Activity (Mus musculus [20]): Dose-dependent effect; Activity (Mus musculus [21]): Active
COc1cc2nccc(Oc3cc4cccc(C(=O)Nc5ccc(Cl)cc5)c4cn3)c2cc1OC	0.023 µM	0.175 µM	> 1.14 µM	–
COc1cc2nccc(Oc3ccc4c(C(=O)Nc5ccc(F)cc5)cccc4c3)c2cc1OC	0.001 µM	0.002 µM	0.305 µM	–
COc1cc2nccc(Oc3ccc4c(C(=O)Nc5ccccc5F)cccc4c3)c2cc1OC	0.002 µM	0.007 µM	> 1.14 µM	–
O=C(Nc1ccc(Cl)cc1)c1cccc2cc(Oc3ncnc4[nH]ccc34)ccc12	0.028 µM	0.037 µM	> 1.14 µM	–
COc1cc2nccc(Oc3ccc4c(C(=O)Nc5ccc(Cl)c(C(F)(F)F)c5)cccc4c3)c2cc1OC	0.001 µM	0.247 µM	0.228 µM	–
CNc1nccc(Oc2ccc3c(C(=O)Nc4ccc(Cl)cc4)cccc3c2)n1	0.046 µM	0.296 µM	> 1.1 µM	–

Continued by falling IC50 [1], values first:

IC50 [1]	Structure (SMILES)	IC50 (HUVEC [2])	IC50 (HUVEC [3])	also measured
0.001 µM	COc1cc2nccc(Oc3ccc4c(C(=O)Nc5cc(C)no5)cccc4c3)c2cc1OC	0.007 µM	> 1.14 µM	IC50 (Cytochrome P450 3A4): 40 µM; clearance [4]: 21.7 mL/min/kg; IC50 (Cytochrome P450 2D6): > 50 µM; MRT [5]: 2.1 h; Vd [6]: 2.7 L/kg; microsomal CLint [7]: 40 µL/min/mg; microsomal CLint [8]: 40 µL/min/mg; half-life [9]: 2.4 h
0.0008 µM	COc1cc2nccc(Oc3ccc4c(C(=O)Nc5cccnc5)cccc4c3)c2cc1OC	0.002 µM	1.1 µM	IC50 (Cytochrome P450 3A4): 2 µM; Cmax [10]: 5710 ng/mL; MRT [11]: 1.4 h; IC50 (Cytochrome P450 2D6): 17 µM; half-life [12]: 1.1 h; Vd [13]: 1.3 L/kg; AUC(0-t) at 24 h [14]: 27100 ng·h/mL; microsomal CLint [7]: 90 µL/min/mg; bioavailability [15]: 100%; microsomal CLint [8]: 90 µL/min/mg; clearance [16]: 15 mL/min/kg
0.0008 µM	COc1cc2nccc(Oc3ccc4c(C(=O)Nc5cc(C(C)(C)C)on5)cccc4c3)c2cc1OC	0.068 µM	0.19 µM	–
0.0007 µM	COc1cc2nccc(Oc3ccc4c(C(=O)Nc5ccc(C(C)(C)C)cc5)cccc4c3)c2cc1OC	0.063 µM	0.944 µM	–
0.0006 µM	COc1cc2nccc(Oc3ccc4c(C(=O)Nc5cc(C)on5)cccc4c3)c2cc1OC	0.006 µM	0.25 µM	–
0.0006 µM	COc1cc2nccc(Oc3ccc4c(C(=O)Nc5cccc(F)c5)cccc4c3)c2cc1OC	0.003 µM	–	–
0.0005 µM	COc1cc2nccc(Oc3ccc4c(C(=O)Nc5ccc(C)cc5)cccc4c3)c2cc1OC	0.002 µM	0.548 µM	–
0.0005 µM	COc1cc2nccc(Oc3ccc4c(C(=O)Nc5cccc(C(F)(F)F)c5)cccc4c3)c2cc1OC	0.034 µM	0.205 µM	–
0.0005 µM	COc1cc2nccc(Oc3ccc4c(C(=O)Nc5ccc(C(F)(F)F)cc5)cccc4c3)c2cc1OC	0.016 µM	0.228 µM	–
0.0003 µM	COc1cc2nccc(Oc3ccc4c(C(=O)Nc5cccc(Cl)c5)cccc4c3)c2cc1OC	0.0051 µM	–	–
0.0003 µM	COc1cc2nccc(Oc3ccc4c(C(=O)Nc5cc(Cl)cc(Cl)c5)cccc4c3)c2cc1OC	0.028 µM	0.742 µM	–
0.0002 µM	COc1cc2nccc(Oc3ccc4c(C(=O)Nc5ccon5)cccc4c3)c2cc1OC	–	–	–
0.0002 µM	COc1cc2nccc(Oc3ccc4c(C(=O)Nc5ccccc5)cccc4c3)c2cc1OC	0.0008 µM	0.577 µM	–
0.0002 µM	COc1cc2nccc(Oc3ccc4c(C(=O)Nc5ccc(Cl)cc5)cccc4c3)c2cc1C(N)=O	0.003 µM	0.38 µM	–
